Drawing on the NIST ThermoML archive (doi:10.1016/j.fluid.2014.12.033), this text covers Normal boiling temperature for 4 compounds.

The conditions of the data set: Liquid.

± gives the expanded uncertainty stated by the source.

In the case of `CCCCC(CC)COP(=O)(O)OCC(CC)CCCC` (centres undefined) [bis(2-ethylhexyl) hydrogen phosphate], the Normal boiling temperature (DSC) is 260 ± 16 °C. As for `CCCCCCCCO` [octan-1-ol], the Normal boiling temperature (Distillation) was 193 ± 1 °C. As to `ClC(Cl)Cl` [trichloromethane], the Normal boiling temperature (Distillation) turned out to be 62 ± 1 °C.

Regarding `C1CCCCC1` [cyclohexane], where the note is “Distillation”, the Normal boiling temperature stood at 82 ± 1 °C.
